From PubChem BioAssay (NCI) come the findings set out here.

Some test systems named below: 786-0 renal; DMS 114 small cell lung; LXFL 529 NSCLC; M19-MEL melanoma; SR leukemia; BT-549 breast; MCF7 breast; MDA-N; NCI/ADR-RES ovarian; PC-3 prostate; T-47D breast; HS 578T breast; HOP-18 NSCLC.
Assay in all cases: growth of human tumour cells (NCI), 48 h

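Following 48 hours of exposure in 96-well plates, responses at five concentrations were used to interpolate endpoints linearly. GI50 marks 50% less growth. TGI is the concentration that stops growth completely.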 Bounds are passed on as bounds.

Consider `CSc1nc(Cl)c(Br)c(Sc2nc(N)nc3nc[nH]c23)n1`, for which the TGI with 786-0 renal was 15.2 µM; in the test on DMS 114 small cell lung, 18.9 µM; in the test on LXFL 529 NSCLC, 18.7 µM; with M19-MEL melanoma it was 23.4 µM; with SR leukemia it was 14.1 µM.

As for `N=C(c1ccc2ccccc2c1)c1ccccc1Cc1ccccc1`, the TGI in the test on 786-0 renal, in the test with BT-549 breast, with MCF7 breast, in the test on MDA-N, in the test with NCI/ADR-RES ovarian and in the test with PC-3 prostate was above 100 µM throughout. Moreover, the TGI with SR leukemia is above 100 µM; in the test on T-47D breast, 55.7 µM.

As for `O=C1c2ccccc2C(=O)c2c(Nc3ccc4c5c(cccc35)C(=O)c3ccccc3-4)cccc21`, the TGI in the test on 786-0 renal, in the test with BT-549 breast, in the test on HS 578T breast, with MDA-N, with NCI/ADR-RES ovarian and with PC-3 prostate was above 100 µM each time. The TGI in the test on SR leukemia and in the test on T-47D breast was above 100 µM each time.

In the case of `CCOC(=O)C12CCC(=O)C=C1[C@@H](C)C(=O)CC2` (stereo partly drawn), the TGI with DMS 114 small cell lung, in the test on LXFL 529 NSCLC, with M19-MEL melanoma and with SR leukemia was above 100 µM throughout.

As to `O=C(CNc1cccc([N+](=O)[O-])c1)Nn1c(-c2ccccc2)nc2ccccc2c1=O`, the TGI is above 100 µM in the test with BT-549 breast; 3.6 µM in the test with HS 578T breast; 1.71 µM in the test with MCF7 breast; 1.89 µM in the test with NCI/ADR-RES ovarian; 1.85 µM with PC-3 prostate; 4.54 µM in the test on T-47D breast.

As to `CC(C)(C)N1C(C(=O)c2ccccc2)C1c1ccccc1` (stereo not drawn), the TGI in the test on LXFL 529 NSCLC and with M19-MEL melanoma was above 100 µM each time.

Take `N#CN=C(N)NC(=O)/C=C/C=C/c1ccc(Cl)cc1`: the TGI in the test with 786-0 renal, with DMS 114 small cell lung, in the test on HOP-18 NSCLC, with LXFL 529 NSCLC, in the test with M19-MEL melanoma and in the test with SR leukemia was above 100 µM each time.

Consider `CC(C)(C)OC(=O)c1cnc(Cl)cn1`, for which the TGI in the test with 786-0 renal, in the test with BT-549 breast, in the test on HS 578T breast, with MCF7 breast, with NCI/ADR-RES ovarian and in the test on PC-3 prostate was above 100 µM throughout. For the same compound, the TGI with SR leukemia and in the test with T-47D breast was above 100 µM each time.

As for `CC(C)c1cc(CN(C)C)c(O)c(C(C)(C)C)c1`, the TGI with 786-0 renal is 32.5 µM; with BT-549 breast it was above 100 µM; in the test with HS 578T breast it was above 100 µM; in the test with MCF7 breast, 30.1 µM; with MDA-N, 73.3 µM; in the test with NCI/ADR-RES ovarian, above 100 µM. The TGI came out at 56.7 µM with PC-3 prostate and 58.1 µM with T-47D breast.

`O=c1ccc2nc(-c3ccccc3)nn(-c3ccccn3)c-2c1`: the GI50 was 20.8 µM in the test on BT-549 breast; 23.4 µM with HS 578T breast; 2.13 µM in the test on MCF7 breast; 19.6 µM in the test on NCI/ADR-RES ovarian; 13.2 µM in the test with PC-3 prostate; 2.97 µM with SR leukemia. In addition, the GI50 with T-47D breast is 2.03 µM. For the same compound, the TGI is 56.8 µM with BT-549 breast; 98.8 µM in the test on HS 578T breast; 5.88 µM in the test with MCF7 breast; 67.1 µM in the test on NCI/ADR-RES ovarian; 35.7 µM with PC-3 prostate; 18.5 µM in the test with SR leukemia. The TGI with T-47D breast came out at 6.79 µM.

Turning to `Nc1nc(N)c2c(n1)NC(=O)c1c(c3ccccc3n1Cc1ccc(Cl)cc1)C2`, the TGI is 49.2 µM in the test with BT-549 breast; above 100 µM in the test with HS 578T breast; 88.5 µM with MCF7 breast; 34.5 µM in the test on MDA-N; 85.6 µM in the test on NCI/ADR-RES ovarian; above 100 µM with PC-3 prostate. In addition, the TGI with T-47D breast is 43.9 µM.

Regarding `Nc1c2c(=O)[nH]c(=O)c2c(N)c2c(=O)c3ccccc3c(=O)c12`, the TGI in the test on 786-0 renal was 10.9 µM; in the test with BT-549 breast, 3.71 µM; in the test with HS 578T breast it was above 25.9 µM; in the test on MCF7 breast, 2.72 µM; in the test on MDA-N, 0.448 µM; with NCI/ADR-RES ovarian, 5.9 µM. Further, the TGI in the test with PC-3 prostate was above 36.6 µM; in the test on T-47D breast, above 49.6 µM.

As for `CC(=O)OC(C)C1C2=C(C(=O)CC1(C)O)C(=O)c1c(ccc(-c3ccc4c(c3O)C(=O)C3=C(C4=O)C(C(C)OC(C)=O)C(C)(O)CC3=O)c1O)C2=O` (stereo not drawn), the TGI in the test on 786-0 renal was 3.44 µM; with BT-549 breast it was 2.83 µM; with DMS 114 small cell lung, 1.24 µM; with HOP-18 NSCLC, 1.74 µM; in the test with HS 578T breast, 5 µM; with LXFL 529 NSCLC, 1.51 µM. The TGI in the test on M19-MEL melanoma came to 2.7 µM; with MCF7 breast it was 4.06 µM; with MDA-N, 7.34 µM; in the test with NCI/ADR-RES ovarian, 45.1 µM; in the test on PC-3 prostate it was 8.74 µM; in the test on SR leukemia it was 26.5 µM. Further, the TGI in the test with T-47D breast was found to be 4.61 µM.

For the compound `C=CC[N+]12CN3CN(CN(C3)C1)C2`, the TGI with BT-549 breast is 61.3 µM; in the test on HS 578T breast, above 100 µM; with MCF7 breast, above 100 µM; in the test with MDA-N, 35.5 µM; with NCI/ADR-RES ovarian, 62.7 µM; with PC-3 prostate, above 100 µM. This compound also came in with a TGI with T-47D breast of 76.5 µM.

Consider `COc1ccc(C[C@H](N)C(=O)NC2C(CO)OC(n3cnc4c(N(C)C)ncnc43)C2O)cc1` (stereo partly drawn), for which the TGI in the test with DMS 114 small cell lung amounted to 0.604 µM; with LXFL 529 NSCLC, 0.305 µM; in the test with M19-MEL melanoma, 1.54 µM; in the test on SR leukemia it was 0.595 µM.

As to `COC(=O)Nc1nc2cc(OC)c(OC)cc2c(=O)[nH]1`, the TGI in the test with 786-0 renal was above 100 µM; in the test on BT-549 breast, above 100 µM; in the test with HS 578T breast, above 100 µM; in the test on MCF7 breast, above 100 µM; in the test on MDA-N it was 7.99 µM; in the test on NCI/ADR-RES ovarian, above 100 µM. For the same compound, the TGI in the test on PC-3 prostate is 71 µM; in the test on SR leukemia, above 100 µM; with T-47D breast, above 100 µM.

Consider `NC(=O)C(N)=O`, for which the TGI with 786-0 renal, in the test with DMS 114 small cell lung, in the test with HOP-18 NSCLC, in the test with LXFL 529 NSCLC, in the test on M19-MEL melanoma and with SR leukemia was above 100 µM throughout.
